Test results published in ChEMBL document CHEMBL1130081, “Inhibition of human telomerase by a G-quadruplex-interactive compound” (J Med Chem, 1997).

Molecular target: Telomerase reverse transcriptase (Homo sapiens, UniProt O14746)
Assay: Inhibitory concentration against human telomerase.

Chain of Telomerase reverse transcriptase (O14746 whole entry): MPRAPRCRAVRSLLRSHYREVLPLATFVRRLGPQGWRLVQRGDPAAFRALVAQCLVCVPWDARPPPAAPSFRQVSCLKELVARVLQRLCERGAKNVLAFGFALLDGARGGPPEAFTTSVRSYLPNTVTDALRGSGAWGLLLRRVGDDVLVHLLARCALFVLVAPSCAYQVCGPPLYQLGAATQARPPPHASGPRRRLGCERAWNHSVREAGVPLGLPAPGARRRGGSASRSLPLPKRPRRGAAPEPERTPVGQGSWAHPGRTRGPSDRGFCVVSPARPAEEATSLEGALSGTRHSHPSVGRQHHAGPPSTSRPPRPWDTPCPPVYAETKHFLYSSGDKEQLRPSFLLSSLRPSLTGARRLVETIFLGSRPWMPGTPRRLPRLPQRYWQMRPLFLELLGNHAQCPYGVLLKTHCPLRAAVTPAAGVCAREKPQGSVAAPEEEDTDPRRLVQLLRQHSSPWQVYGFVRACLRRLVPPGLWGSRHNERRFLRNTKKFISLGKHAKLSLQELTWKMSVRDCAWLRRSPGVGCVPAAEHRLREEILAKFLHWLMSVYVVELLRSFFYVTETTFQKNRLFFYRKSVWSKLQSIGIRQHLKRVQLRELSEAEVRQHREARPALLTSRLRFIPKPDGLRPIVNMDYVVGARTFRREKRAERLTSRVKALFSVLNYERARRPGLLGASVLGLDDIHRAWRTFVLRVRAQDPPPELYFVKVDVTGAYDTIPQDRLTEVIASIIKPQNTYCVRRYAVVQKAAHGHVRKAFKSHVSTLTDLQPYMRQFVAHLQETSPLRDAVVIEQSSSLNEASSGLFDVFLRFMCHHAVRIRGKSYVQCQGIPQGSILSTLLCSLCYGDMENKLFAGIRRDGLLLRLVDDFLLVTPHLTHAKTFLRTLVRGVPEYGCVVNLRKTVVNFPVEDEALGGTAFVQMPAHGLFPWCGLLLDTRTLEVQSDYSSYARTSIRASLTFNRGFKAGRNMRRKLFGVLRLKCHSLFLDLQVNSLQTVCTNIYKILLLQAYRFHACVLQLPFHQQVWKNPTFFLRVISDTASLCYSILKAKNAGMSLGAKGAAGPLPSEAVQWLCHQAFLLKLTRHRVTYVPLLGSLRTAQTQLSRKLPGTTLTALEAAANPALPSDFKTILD

Question: For `C[N+]1(CCC(=O)Nc2ccc3c(c2)C(=O)c2ccc(NC(=O)CC[N+]4(C)CCCCC4CO)cc2C3=O)CCCCC1CO` (stereo unspecified), which IC50 is on record?
Answer: 23 µM
